In patent publication US20100069316A1, “TREATMENT FOR MULTIPLE MYELOMA” (Ares Trading S.A., priority 2006, published 2010):

Key:
XG-12 myeloma cell line = assay: Cell cycle measurement (BrdU/PI, S phase), XG-12; assay type: cell-based, human; details: day 3 of culture
Description: (§1) The cell cycle distribution of the cell lines was assessed by flow cytometry analysis by propidium iodide (PI) and bromodeoxyuridine (BrdU) double-staining. Thirty minutes before stopping the culture, BrdU (10 μM) were added to the cultures and then the cells were collected by centrifugation, washed twice in phosphate buffer saline (PBS) and fixed in 70% ethanol for 20 minutes at room temperature. After two washes with PBS, cells were resuspended in 50 μL of 3N HCl, 0.5% Tween 20 and incubated 20 minutes at 20° C. to denature DNA. […] The fluorescence of FL1-H (BrdU) and FL2-A (PI) were analyzed on a FACScan flow cytometer using Cell Quest software (Becton Dickinson).
(§2) Two myeloma cell lines (XG-3 and XG-12) that are sensitive to compound A (1-(4-{4-[4-(4-chlorophenyl)-pyrimidin-2-ylamino]-benzoyl}-piperazin-1-yl)-ethanone) were selected for the study. To assess the effect of compound A on myeloma cell survival, the percentage apoptotic cells was determined using binding of annexin V to apoptotic cells. The effect of compound A on the cell cycle was assessed by evaluating the percentage of cells in the S phase of the cell cycle by incorporation of BrdU-FITC. Apoptosis, cell cycle and cell numeration were evaluated daily on a four day culture period on the cell lines using the IC10, IC50 and I90 respective doses of compound A.

XG12 myeloma cell line = assay: Cell proliferation assay (tritiated thymidine incorporation), XG12; assay type: cell-based, human; details: Homo sapiens, XG12, alone or with fixed Velcade/Melphalan
Description: (§3) Myeloma cells were harvested in the exponential growth phase (at day 3 after culture passage when the cell concentration is around 5×10^5 cells/ml). Cells were washed twice, cultured for 3 hours in RPMI1640 and 10% FCS, washed twice. This makes it possible to remove cell-bound growth factors (in particular recombinant IL-6). Then cells are plated in 96-well flat-bottomed microplates at various concentrations depending on their doubling time: • 5×10^3 cells/well in 100 μl for the cell lines: XG-1, XG-7 • 10^4 cells/well in […] for the cell lines: XG-2, XG-4, XG-6, XG-11, PRMI8226, L363 • 2×10^4 cells/well in 100 μl for the cell lines: XG-3, XG-12, XG-13, XG-14, XG-19, XG-20
(§4) The culture medium used were: • PRMI1640, 10% FCS and 0.5 ng/ml of IL-6 for XG-1, XG-2, XG-3, XG-4, XG-6, XG-7, XG-11, XG-12, XG-13, XG-19, XG-20 cells • X-VIVO20 and 0.5 ng/ml IL-6 for XG-14 cells • PRMI1640 and 10% FCS for RPMI8226 and L363 cells
(§5) The diluted compounds, DMSO or control culture medium were added in 100 μl at the start of the culture. Three culture wells were done for one compound dilution and the experiments were done twice (finally six culture wells for one compound dilution).
(§6) Cells were cultured for 4 days. Eight hours before the end of the culture, 0.5 μCi of tritiated thymidine were added in 50 μl of RPMI1640 and 10% FCS. Cells were then extracted with a cell collector and the thymidine incorporation was determined using a beta cell counter.
(§7) For each experiment, the mean tritiated thymidine incorporations (mean values determined on three culture wells) were plotted against the logarithmic concentrations of the compound. The curves were fitted with exponential regression, which was determined using the concentrations defining the inhibition response (usually 3-4 concentrations).
(§8) The concentrations yielding 50% and 90% inhibition of the proliferation of myeloma cells were determined with these regression curves.
(§9) The concentration yielding 10% (IC10) or 50% (IC50) inhibition of the myeloma cell lines were determined and the data are listed in Table 2.
(§10) Compound A was tested in combination with melphalan or Velcade. Increasing concentration of compound A (0, 0.01, 0.03, 0.12, 0.37, 1.1, 3.1, 10, 30 μM) were applied on 4 myeloma cell lines alone or in combination with Velcade or melphalan at concentration yielding around 10% or 50% inhibition.

[1] = tested on: myeloma cell lines (XG-3 and XG-12); assay: Cells in S phase (BrdU) in myeloma cell lines; assay type: cell-based, human; details: XG-3 and XG-12, IC10, IC50, IC90 doses
Description: as §1, §2

XG-3 myeloma cell line = assay: Cell cycle measurement (BrdU/PI, S phase), XG-3; assay type: cell-based, human; details: day 3 of culture
Description: The cell cycle distribution of the cell lines was assessed by flow cytometry analysis by propidium iodide (PI) and bromodeoxyuridine (BrdU) double-staining. Thirty minutes before stopping the culture, BrdU (10 μM) were added to the cultures and then the cells were collected by centrifugation, washed twice in phosphate buffer saline (PBS) and fixed in 70% ethanol for 20 minutes at room temperature. After two washes with PBS, cells were resuspended in 50 μL of 3N HCl, 0.5% Tween 20 and incubated 20 minutes at 20° C. to denature DNA. The cells were then recovered by centrifugation, resuspended in 250 μL of 10 mM sodium tetraborate to neutralize the reaction, washed twice with PBS, 0.05% Tween 20, and incubated with 20 μL of anti-BrdU-FITC (BD Biosciences). After two additional washes, the cells were resuspended in 500 μL of PBS, 0.05% Tween 20 containing 10 μg/ml PI. The fluorescence of FL1-H (BrdU) and FL2-A (PI) were analyzed on a FACScan flow cytometer using Cell Quest software (Becton Dickinson).
as §2

XG7 myeloma cell line = assay: Cell proliferation assay (tritiated thymidine incorporation), XG7; assay type: cell-based, human; details: Homo sapiens, XG7, alone or with fixed Velcade/Melphalan
Description: as §3, §4, §5, §6, §7, §8, §9, §10

14 myeloma cell lines = assay: Cell proliferation assay (tritiated thymidine incorporation), panel of myeloma cell lines; assay type: cell-based; details: 14 human myeloma cell lines, 0.04-10 μM, 4 days culture
Description: Myeloma cell lines were passaged every 3-4 days in RPMI640 and 10% fetal calf serum (FCS). For the IL-6 dependent cell lines, 2 ng/ml of freshly thawed IL-6 (Abcys, France) was added at the beginning of the culture. Each cell line has unique phenotypic and HLA characteristics that make it possible to periodically check their identity.
The following cell lines were obtained in B. Klein's laboratory: XG-1, XG-2, XG-3, XG-4, XG-6, XG-7, XG-11, XG-12, XG-13, XG-14, XG-19, XG-20. (Zhang, et al., 1994; Rebouissou, et al., 1998)
RPMI8226 and L363 cell lines were purchased from ATCC.
Myeloma cells were harvested in the exponential growth phase (at day 3 after culture passage when the cell concentration is around 5×10^5 cells/ml). Cells were washed twice, cultured for 3 hours in RPMI1640 and 10% FCS, washed twice. This makes it possible to remove cell-bound growth factors (in particular recombinant IL-6). […]
Cells were cultured for 4 days. […] Cells were then extracted with a cell collector and the thymidine incorporation was determined using a beta cell counter.
as §7, with “concentrations). […]” for “concentrations).”

10 myeloma cell lines = assay: Cell proliferation assay, mean over 10 myeloma cell lines; assay type: cell-based, human; details: mean determined on 10 myeloma cell lines
Description: as §3, §4, §5, §6, §7, §8

[2] = concentration of compound A yielding 50% inhibition of proliferation, read-out: IC50
[3] = concentration of compound A yielding 90% inhibition of proliferation

IC50 (XG12 myeloma cell line; [2]): 0.974 µM | IC90 (XG12 myeloma cell line; [3]): 3.92 µM | IC50 (XG7 myeloma cell line; [2]): 6.36 µM | IC90 (XG7 myeloma cell line; [3]): 9.33 µM | IC50 (10 myeloma cell lines; Homo sapiens, read-out: mean concentration yielding 50% inhibition): 3.3 µM
Compound: CC(=O)N1CCN(C(=O)c2ccc(Nc3nccc(-c4ccc(Cl)cc4)n3)cc2)CC1 [Compound A, 1-(4-{4-[4-(4-Chloro-phenyl)-pyrimidin-2-ylamino]-benzoyl}-piperazin-1-yl)-ethanone]
S phase (%) percentage of cells in the S phase (XG-12 myeloma cell line; XG-12, compound A at IC50 concentration): 37.3% | S phase (%) percentage of cells in the S phase (XG-12 myeloma cell line; XG-12, compound A at IC90 concentration): 6.8% | number of cells in the S phase of the cell cycle [1]: induced a decrease in the number of cell in the S phase | S phase (%) percentage of cells in the S phase (XG-3 myeloma cell line; XG-3, compound A at IC10 concentration): 32.1% | S phase (%) percentage of cells in the S phase (XG-3 myeloma cell line; XG-3, compound A at IC50 concentration): 29.2% | S phase (%) percentage of cells in the S phase (XG-3 myeloma cell line; XG-3, compound A at IC90 concentration): 15.3% | inhibition of the proliferation of myeloma cell lines (14 myeloma cell lines): full inhibition of the proliferation of 13 out 14 human myeloma cells | mean concentration yielding 10% inhibition (10 myeloma cell lines): 1 µM | mean concentration yielding 90% inhibition (10 myeloma cell lines): 10 µM
